{"source": "patent US20230310427A1", "about": "“NEW THERAPEUTIC USE OF RILPIVIRINE” (UNIVERSITY OF SOUTH AUSTRALIA, priority 2020, published 2023)", "assay_type_in_all_cases": "cell-based", "key": {"cyclin D1 in A2780 cells": {"tested_on": "cyclin D1 in A2780 cells", "assay": "Western blot, cell cycle regulatory proteins", "conditions": "24 hour, increasing amounts", "description": "(§1) For Western blotting, cells (8×10^5) were seeded in a culture dish with 10 mL medium and incubated overnight at 37° C., 5% CO2. Untreated and compound-treated cells were lysed using phosphate lysis buffer and protease inhibitors. The protein concentration of each sample was determined by Bio-Rad DC™ protein assay (Bio-Rad Laboratories, Hercules, CA, United States of America). The protein was deactivated at 95° C. for 5 min and then resolved on 4-20% polyacrylamide gels by electrophoresis. Proteins were transferred to polyvinylidene difluoride (PDVF) membrane and blocked for 1 h with 10% skimmed milk (SM) in Tris-buffered saline and Tween (TBST). After adding primary antibody, the membranes were incubated overnight on a rocker in a 4° C. cold room. The following day, membranes were washed in TBST (4×20 min), incubated for at least 1 h at room temperature with the appropriate horseradish peroxidase conjugated secondary antibody. Following this, the blots were washed with TBST (4×20 min) again. The blots were then treated with Western blotting detection reagent and the band intensity was determined using a Bio-Rad ChemiDoc™ MP imaging system (Bio-Rad Laboratories). All the antibodies used for protein detection were from Cell Signaling Technology (Danvers, MA, United States of America). The primary and secondary antibodies used were obtained from Cell Signalling Technology (Danvers, MA, United States of America)."}, "p53 in A2780 cells": {"tested_on": "p53 in A2780 cells", "assay": "Western blot, cell cycle regulatory proteins", "conditions": "24 hour, increasing concentration", "description": "as §1"}, "p21 in A2780 cells": {"tested_on": "p21 in A2780 cells", "assay": "Western blot, cell cycle regulatory proteins", "conditions": "24 hour, increasing concentration", "description": "as §1"}, "[1]": {"tested_on": "phosphorylated retinoblastoma (Rb) protein in A2780 cells", "assay": "Western blot, cell cycle regulatory proteins", "conditions": "24 hour, increasing amounts", "description": "as §1"}, "bc1-2": {"tested_on": "bc1-2", "assay": "Western blot of cell lysates, apoptosis markers", "conditions": "increasing concentrations; data not shown", "description": "as §1, with “The primary and secondary antibodies used were obtained from Cell Signalling Technology (Danvers, MA, United States of America).” left out"}, "[2]": {"tested_on": "cleaved PARP (poly (ADP-ribose) polymerase)", "assay": "Western blot of cell lysates, apoptosis markers", "conditions": "increasing concentrations; data not shown", "description": "as §1, with “The primary and secondary antibodies used were obtained from Cell Signalling Technology (Danvers, MA, United States of America).” left out"}, "A2780 cells": {"tested_on": "A2780 cells", "assay": "Colony formation assay", "conditions": "data not shown", "description": "A total of 1000-1500 cells/well were plated on a 6 well plate and allowed to adhere for 6-8 hours. Appropriate concentrations of Rilpivirine were added and then the cells were put back into the incubator for 7-14 days. The medium was changed every 3 days. After the incubation, the cells were washed with 1 ml PBS carefully. Cells were then fixed with 1 % Formaldehyde and stained with crystal violet. Colonies were counted with >50 cells by eye and images were taken using a camera fitted with microscope."}, "[3]": {"tested_on": "Leukemia (HL-60, U-937, NB4, Jurkat, K-562), ovarian (A2780), prostate (PC3) and breast (T47D) cancer cell lines", "assay": "Cell viability assays (MTT and resazurin)", "conditions": "72 hour treatment; range over all cell lines tested; read-out: IC50, inhibition of cancer cell proliferation", "source_text": "The MTT (3-(4,5-dimethylthiazol-2-yl)-2,5-diphenyl tetrazolium bromide; Sigma-Aldrich, St Louis, MO, United States of America) assay was used to determine half maximal inhibition values (IC50) in response to drug treatment using a number of different adherent cancer cell lines. The MTT was converted by metabolically active cells into an insoluble formazan product which was solubilised with 100% DMSO. The solubilised formazan gives absorbance at 560 nm which is directly proportional to the number of viable cells. The assay was carried out as previously described (Wang S et al., J Med Chem 47(7):1662-1675, 2004). The absorbance of treated wells was read using an EnVision multi-label plate reader. The resazurin assay was carried out for non-adherent cell lines as reported previously (Yu M et al., EJMC 95:116-126, 2015). IC50 values were determined by non-linear regression analysis using GraphPad Prism software."}, "[4]": {"tested_on": "cyclin D1 mRNA in A2780 cells", "assay": "RT-qPCR", "conditions": "24 hours", "description": "(§2) The expression of different genes at the mRNA level was assayed by RT-qPCR. Briefly, cells (1×10^6) were seeded in 10 cm tissue culture plates and treated with compounds after having been cultured overnight at 37° C., 5% CO2. RNA was extracted using the High Pure RNA Isolation Kit (Roche Applied Science, Castle Hill, NSW, Australia) according to the manufacturer’s instructions. The concentration of RNA in each sample was determined using a NanoDrop® ND1000 spectrophotometer (ThermoFisher Scientific, Waltham, MA, United States of America). 1 µg of RNA was used in a 20 µL reverse transcription reaction using a Transcriptor First Strand cDNA Synthesis Kit (Roche Applied Science). RT-qPCR was completed using duplicate samples with cDNA using SYBR Green I dye (Roche Applied Science) and performed using Light Cycler LC96 (Roche Applied Science, Penzberg, Germany). GAPDH mRNA was used as a reference sequence and data was analysed using Bio-Rad CFX manager version 3.1."}, "p53 mRNA in A2780 cells": {"tested_on": "p53 mRNA in A2780 cells", "assay": "RT-qPCR", "conditions": "24 hours", "description": "as §2"}, "[5]": {"tested_on": "cleavage of PARP in p53 WT A2780 cells", "assay": "Western blot, PARP cleavage", "conditions": "48 hour treatments, various concentrations", "description": "as §1, with “The primary and secondary antibodies used were obtained from Cell Signalling Technology (Danvers, MA, United States of America).” left out"}}, "data": [{"smiles": "Cc1cc(/C=C/C#N)cc(C)c1Nc1ccnc(Nc2ccc(C#N)cc2)n1", "note": "[Rilpivirine, 4-[[4-[4-[(E)-2-cyanoethenyl]-2,6-dimethylanilino]pyrimidin-2-yl]amino]benzonitrile]", "values": [{"measurement": "amount of cyclin D1", "setting": "cyclin D1 in A2780 cells", "value": "decrease"}, {"measurement": "expression of p53 protein", "setting": "p53 in A2780 cells", "value": "increase in the expression of p53"}, {"measurement": "p21 protein", "setting": "p21 in A2780 cells", "value": "induced its target gene p21"}, {"measurement": "amount of phosphorylated Rb protein", "setting": "[1]", "value": "decrease"}, {"measurement": "bc1-2 level in cell lysates", "setting": "bc1-2", "value": "downregulation of bc1-2"}, {"measurement": "cleaved PARP in cell lysates", "setting": "[2]", "value": "appearance in the cell lysates of cleaved PARP"}, {"measurement": "clonogenic survival", "setting": "A2780 cells", "value": "clear inhibition of clonogenic survival"}, {"measurement": "IC50", "setting": "[3]", "value": "3 to 8", "unit": "µM"}, {"measurement": "cyclin D1 mRNA", "setting": "[4]", "value": "decrease in cyclin D1mRNA was observed in a dose-dependent manner"}, {"measurement": "p53 mRNA expression", "setting": "p53 mRNA in A2780 cells; 20 µM", "value": "dramatic increase in p53 expression"}, {"measurement": "p53 mRNA expression", "setting": "p53 mRNA in A2780 cells; increasing concentration", "value": "upregulated p53 expression"}, {"measurement": "cleavage of PARP", "setting": "[5]", "value": "apoptosis is associated with cleavage of PARP"}]}]}
